# According to patent US9656992B2, “Pyrimidine compounds for the treatment of hepatitis C” (priority 2013, dated 2017):
# Where two headings read alike, the source gives them in different places.
# System: HCV pseudoparticles, genotype 1a HCV E1 and E2 envelope (H77C isolate)
# Assay: HCV pseudoparticle infection assay (luciferase reporter, entry into Huh7 cells)
# Format: cell-based
# Conditions: Hepatitis C virus, Huh-7, 48 h
# [1] = read-out: EC50 (nM) 1a (H77C), HCV pseudoparticles genotype 1a (H77C), Huh7 cells, luciferase measured 2 days after infection, class symbols
# [2] = read-out: EC50 (nM) 1a (H77C), HCV pseudoparticles genotype 1a (H77C), Huh7 cells, luciferase measured 2 days after infection, average of duplicates
Structure (SMILES),EC50 [1] [nM],EC50 [2] [nM]
CC(C)(CNC(=O)C(=O)N1CCc2ccccc2C1)CNC(=O)c1ccc(Nc2cc(NCc3ccc(Cl)cc3)nc(OCC(F)(F)F)n2)nc1 [Example 1007],0.01 to 10,–
CC(C)(CNC(=O)C(=O)Nc1ccc(F)cc1)CNC(=O)c1ccc(Nc2cc(NCc3ccc(Cl)cc3)nc(OCC(F)(F)F)n2)nc1 [Example 1012],0.01 to 10,0.482
CC(C)(CNC(=O)C(=O)Nc1nncs1)CNC(=O)c1ccc(Nc2cc(NCc3ccc(Cl)cc3)nc(OCC(F)(F)F)n2)nc1 [Example 1016],10 to 1000,56.8
CN(C)C(=O)C(=O)NCC(C)(C)CNC(=O)c1ccc(Nc2cc(NCc3ccc(Cl)cc3)nc(OCC(F)(F)F)n2)nc1 [Example 1006],10 to 1000,–
CC(C)(CNC(=O)C(=O)Nc1nccs1)CNC(=O)c1ccc(Nc2cc(NCc3ccc(Cl)cc3)nc(OCC(F)(F)F)n2)nc1 [Example 1013],0.01 to 10,–
CC(C)(CNC(=O)C(=O)NCc1ccc(F)cc1)CNC(=O)c1ccc(Nc2cc(NCc3ccc(Cl)cc3)nc(OCC(F)(F)F)n2)nc1 [Example 1018],0.01 to 10,–
Cc1nnc(NC(=O)C(=O)NCC(C)(C)CNC(=O)c2ccc(Nc3cc(NCc4ccc(Cl)cc4)nc(OCC(F)(F)F)n3)nc2)s1 [Example 1011],10 to 1000,–
CC(C)(CNC(=O)C(=O)Nc1ccc(Cl)cc1)CNC(=O)c1ccc(Nc2cc(NCc3ccc(Cl)cc3)nc(OCC(F)(F)F)n2)nc1 [Example 1020],0.01 to 10,–
Cc1cc(NC(=O)C(=O)NCC(C)(C)CNC(=O)c2ccc(Nc3cc(NCc4ccc(Cl)cc4)nc(OCC(F)(F)F)n3)nc2)no1 [Example 1015],0.01 to 10,1.31
Cc1ccc(NC(=O)C(=O)NCC(C)(C)CNC(=O)c2ccc(Nc3cc(NCc4ccc(Cl)cc4)nc(OCC(F)(F)F)n3)nc2)cc1 [Example 1003],0.01 to 10,0.214
CC(C)(CNC(=O)C(N)=O)CNC(=O)c1ccc(Nc2cc(NCc3ccc(Cl)cc3)nc(OCC(F)(F)F)n2)nc1 [Example 1001],0.01 to 10,1.47
CC(C)(CNC(=O)C(=O)Nc1ccc(F)cc1F)CNC(=O)c1ccc(Nc2cc(NCc3ccc(Cl)cc3)nc(OCC(F)(F)F)n2)nc1 [Example 1008],0.01 to 10,–
CNC(=O)C(=O)NCC(C)(C)CNC(=O)c1ccc(Nc2cc(NCc3ccc(Cl)cc3)nc(OCC(F)(F)F)n2)nc1 [Example 1009],0.01 to 10,–
CC(C)(CNC(=O)C(=O)Nc1ccccc1)CNC(=O)c1ccc(Nc2cc(NCc3ccc(Cl)cc3)nc(OCC(F)(F)F)n2)nc1 [Example 1002],0.01 to 10,–
CC(C)(CNC(=O)C(=O)N1CCCCC1)CNC(=O)c1ccc(Nc2cc(NCc3ccc(Cl)cc3)nc(OCC(F)(F)F)n2)nc1 [Example 1010],10 to 1000,–
CC(C)(CNC(=O)C(=O)Nc1cccc(F)c1)CNC(=O)c1ccc(Nc2cc(NCc3ccc(Cl)cc3)nc(OCC(F)(F)F)n2)nc1 [Example 1014],0.01 to 10,–
CC(C)(CNC(=O)C(=O)Nc1cc(F)cc(F)c1)CNC(=O)c1ccc(Nc2cc(NCc3ccc(Cl)cc3)nc(OCC(F)(F)F)n2)nc1 [Example 1019],10 to 1000,–
CC(C)(CNC(=O)C(=O)N1CCOCC1)CNC(=O)c1ccc(Nc2cc(NCc3ccc(Cl)cc3)nc(OCC(F)(F)F)n2)nc1 [Example 1017],10 to 1000,26.8
CC(C)CNC(=O)C(=O)NCC(C)(C)CNC(=O)c1ccc(Nc2cc(NCc3ccc(Cl)cc3)nc(OCC(F)(F)F)n2)nc1 [Example 1004],0.01 to 10,–
CC(C)(CNC(=O)C(=O)NC1CCCCC1)CNC(=O)c1ccc(Nc2cc(NCc3ccc(Cl)cc3)nc(OCC(F)(F)F)n2)nc1 [Example 1005],0.01 to 10,–
